From US4177291A, “Compounds having antidepressive activity” (priority 1976, dated 1979)
Converted amounts (≈) assume the structure as drawn. Where two headings read alike, the source gives them in different places.

How the values were obtained:
uptake of 14C-5-HT [1] = assay: Inhibition of uptake of 14C-5-HT in vitro (mouse midbrain slices); format: cell-based, mice; conditions: 5 min, read-out: Inhibition (50%) of uptake in vitro 5-HT
Description: (§1) The method is described by Ross, Renyi and Ogren in European Journal of Pharmacology 17 (1972), 107-112. Tricyclic antidepressant drugs of type imipramine added in vitro or given in vivo to mice decrease the uptake of ^14 C-5-HT and ^3 H-NA in vitro. In the in vitro experiments different concentrations of the test compound were added to the incubation medium. In the in vivo experiments different doses of the test drug were administered intraperitoneally half an hour before the animals were killed. The incubation performance was the same in the two types of experiments, i.e. the midbrain was taken out and sliced and incubated in a mixture consisting of, per 100 mg of brain slices, 0.2 n-mole of ^14 C-5-HT, 0.2 n-mole of ^3 H-NA and 11μ mole of glucose in 2 ml of Krebs-Henseleit buffer, pH 7.4. The incubation time was 5 minutes. The radioactive amines taken up in the slices were dissolved in Soluene-350® (Packard) and the amounts were determined with the double labelling technique by liquid scintillation. The concentration or dose producing 50 percent decrease of the active uptake (ED50) was determined graphically from dose response curves. Active uptake is defined as that part of the radioactive uptake which is inhibited by a high concentration of cocaine. All doses were given at least to four animals.

uptake of 3H-NA [2] = assay: Inhibition of uptake of 3H-noradrenaline in vivo (drug given i.p., uptake measured in midbrain slices); conditions: Mus musculus, ip, 0.5 h, mice dosed i.p. half an hour before killing, l-noradrenaline 1×10^-7 M, read-out: Inhibition (50%) of uptake in vivo NA
Description: as §1, with “Tricyclic antidepressant drugs of type imipramine added in vitro or given in vivo to mice decrease the uptake of ^14 C-5-HT and ^3 H-NA in vitro.” left out

uptake of 14C-5-HT [3] = assay: Inhibition of uptake of 14C-5-HT in vivo (drug given i.p., uptake measured in midbrain slices); conditions: Mus musculus, ip, 0.5 h, mice dosed i.p. half an hour before killing, 5-HT 1×10^-7 M, read-out: Inhibition (50%) of uptake in vivo 5-HT
Description: as §1, with “Tricyclic antidepressant drugs of type imipramine added in vitro or given in vivo to mice decrease the uptake of ^14 C-5-HT and ^3 H-NA in vitro.” left out

[4] = system: 5-HTP behavioural syndrome; assay: 5-HTP response potentiation test; format: in vivo, mice; conditions: Mus musculus, read-out: Potentiation of 5-HTP effective dose
Description: Inhibition of the uptake of 5-HT potentiates the effects of administered 5-hydroxytryptophan (5-HTP) probably by increasing the amount of 5-HT at the receptor. Three mice are given the test drugs one hour (or 4, 24 hours) before dl-5-HTP 90 mg/kg i.v. 5-HTP alone gives only a weak behavioural syndrome but in pretreated mice there is seen a characteristic behavioural syndrome, which comes within five minutes: tremor, lordosis, abduction of the hindlegs, head-twiches. The strength of the syndrome is scored from 0 to +3. Each group consists of 3 animals and at least 4 groups were tested at 25 mg/kg i.p. Control groups receiving imipramine (Tofranil®) are used as reference, since imipramine constantly potentiated dl-5-HTP. The least dose of the test compound producing maximal score (+3) in all animals is estimated from a logarithmic dose-response curve, and is denoted "effective dose" in the following Table.

uptake of 3H-NA [5] = assay: Inhibition of uptake of 3H-noradrenaline in vitro (mouse midbrain slices); format: cell-based, mice; conditions: 5 min, compound added to incubation medium, l-noradrenaline 1×10^-7 M, 5 min incubation, ED50 from dose response curves, read-out: Inhibition (50%) of uptake in vitro NA
Description: as §1

CN(C)CCCN1c2ccccc2CCc2ccccc21 [Imipramine, imipramine]
IC50 (uptake of 14C-5-HT [1]; Mus musculus): 0.1 µg/mL (≈ 0.357 µM)
ED50 (uptake of 3H-NA [2]): 6 mg/kg
ED50 (uptake of 14C-5-HT [3]): 24 mg/kg
minimal effective dose [4]: 15 mg/kg
IC50 (uptake of 3H-NA [5]): 0.06 µg/mL (≈ 0.214 µM)

CC(N)C(=O)CC(C)(C)Cc1ccc(Cl)cc1.Cl (stereo not shown) [GEA 995, 2-amino-6-(4-chlorophenyl)-5,5-dimethyl-3-hexanone hydrochloride]
IC50 (uptake of 14C-5-HT [1]; compound added to incubation medium, mouse midbrain slices, 5-HT 1×10^-7 M, 5 min incubation, ED50 from dose response curves): 0.6 µg/mL
ED50 (uptake of 3H-NA [2]): > 40 mg/kg
ED50 (uptake of 14C-5-HT [3]): 20 mg/kg
minimal effective dose ([4]; mice, least dose producing maximal score (+3) in all animals, test drug given before dl-5-HTP 90 mg/kg i.v.): 4 mg/kg
IC50 (uptake of 3H-NA [5]): > 10 µg/mL
